Here are results for 17 molecules from EP4678629A1, “IONIZABLE LIPID MOLECULE, PREPARATION METHOD THEREFOR AND USE THEREOF” (Maxirna (Shanghai) Pharmaceutical Co., Ltd., priority 2023, dated 2024).

Data set [1] deals with DC2.4 cells. The experiment in a line: In vitro transfection of cells with eGFP-mRNA lipid nanoparticle (LNP preparation), fluorescence imaging and flow cytometry. The class given is cell-based, mouse. The note with it: eGFP positivity rate, DC2.4 cells, 200 ng of mRNA per well, after 24 hours. In outline:
(§1)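 Mouse bone marrow-derived DC2.4 dendritic cells seeded at 2 × 10^5 cells/well in DMEM with 10% FBS, transfected with eGFP-mRNA LNPs the next day at 37 °C, 5% CO2. After 24 hours, viability, eGFP-positive rate and mean fluorescence intensity read by fluorescence imaging and flow cytometry.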
In general terms: A flow cytometer gives signals particle by particle.

Experiment in data set [2]: as above
The class given is cell-based, mouse. The note with it: mouse, dc2.4 cells, 200 ng of mRNA per well, after 24 hours; read-out: Cell viability, %. In outline:
as §1

Data set [3] is described as follows: Size and polydispersity index (PDI) of the lipid nanoparticle by dynamic light scattering. The note with it: LNP encapsulating eGFP mRNA, ionizable lipid/DOPE/cholesterol/DMG-PEG2000 50/10/48.25/1.25 mol%, N/P 12; for Particle size: in nm (unit assumed). The class given is physicochemical. In outline:
(§2)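 LNPs were made by microfluidic mixing of ionizable lipid/DOPE/cholesterol/DMG-PEG2000 (50/10/48.25/1.25 mol%) in ethanol with eGFP mRNA in 20 mM citrate pH 6.1, N/P 12, then ultrafiltered into DPBS and 0.2 µm filtered. Size and PDI by DLS at 173° backscatter; encapsulation by Ribogreen.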

Data set [4] in a line: Encapsulation efficiency of the lipid nanoparticle (eGFP mRNA) by Ribogreen method. In kind it is physicochemical. The note with it: LNP encapsulating eGFP mRNA, ionizable lipid/DOPE/cholesterol/DMG-PEG2000 50/10/48.25/1.25 mol%, N/P 12. In outline:
as §2

Regarding `CCCCCCCCCCCCOC(=O)CCCCCCCN(CCO)CCCN(CCCCCCCC(=O)OCCCCCCCCCCCC)CCCCCCCC(=O)OCCCCCCCCCCCC` [Example 50, Didodecyl 8,8'-((3-((8-(dodecyloxy)-8-oxooctyl)(2-hydroxyethyl)amino)propyl)azanediyl)dioctanoate], the “Positive rate, %” value in data set [1] amounted to 99.74%. For the same molecule, the viability at 24 h in data set [2] came out at 90.4%. In data set [3], the PDI came to 0.20 and the Particle size turned out to be 76.74. For the same molecule, in data set [4], the “Encapsulation rate, %” value was found to be 99.63%.
In the case of `CCCCCCCCCCCCOC(=O)CCCCCCCN(CCCO)CCCN(CCCCCCCC(=O)OCCCCCCCCCCCC)CCCCCCCC(=O)OCCCCCCCCCCCC` [Example 51, Didodecyl 8,8'-((3-((8-(dodecyloxy)-8-oxooctyl)(3-hydroxypropyl)amino)propyl)azanediyl)dioctanoate], in data set [1], the “Positive rate, %” value is 99.64%. The viability at 24 h in data set [2] came out at 92%. In data set [3], this molecule registered a PDI of 0.18 and a Particle size of 75.07. Besides, in data set [4], the “Encapsulation rate, %” value is reported as 99.28%.
Turning to `CCCCCCCCCCCCOC(=O)CCCCCCCN(CCCCO)CCCN(CCCCCCCC(=O)OCCCCCCCCCCCC)CCCCCCCC(=O)OCCCCCCCCCCCC` [Example 52, Didodecyl 8,8'-((3-((8-(dodecyloxy)-8-oxooctyl)(4-hydroxybutyl)amino)propyl)azanediyl)dioctanoate], the “Positive rate, %” value in data set [1] is 85.37%. The viability at 24 h in data set [2] was found to be 82.9%. Besides, in data set [3], the PDI worked out at 0.17 and the Particle size is on record as 69.63. In addition, the “Encapsulation rate, %” value in data set [4] is 99.18%.
As to `CCCCCCCCCCCCCCOC(=O)CCCCCN(CCO)CCCN(CCCCCC(=O)OCCCCCCCCCCCCCC)CCCCCC(=O)OCCCCCCCCCCCCCC` [Example 53, Ditetradecyl 6,6'-((3-((2-hydroxyethyl)(6-oxo-6-(tetradecyloxy)hexyl)amino)propyl)azanediyl)dihexanoate], the “Positive rate, %” value in data set [1] is given as 86.07%. The viability at 24 h in data set [2] came to 68.6%. For the same molecule, in data set [3], the PDI is 0.09 and the Particle size was found to be 91.34. In addition, in data set [4], the “Encapsulation rate, %” value is reported as 97.67%.
On to `CCCCCCCCCCCCCCOC(=O)CCCCCN(CCCO)CCCN(CCCCCC(=O)OCCCCCCCCCCCCCC)CCCCCC(=O)OCCCCCCCCCCCCCC` [Example 54, Ditetradecyl 6,6'-((3-((3-hydroxypropyl)(6-oxo-6-(tetradecyloxy)hexyl)amino)propyl)azanediyl)dihexanoate], for which the “Positive rate, %” value in data set [1] is recorded as 93.13%. In addition, in data set [2], the viability at 24 h was found to be 75.9%. Further, in data set [3], the PDI amounted to 0.14 and the Particle size stood at 72.45. For the same molecule, the “Encapsulation rate, %” value in data set [4] was 98.91%.
As to `CCCCCCCCCCCCCCOC(=O)CCCCCN(CCCCO)CCCN(CCCCCC(=O)OCCCCCCCCCCCCCC)CCCCCC(=O)OCCCCCCCCCCCCCC` [Example 55, Ditetradecyl 6,6'-((3-((4-hydroxybutyl)(6-oxo-6-(tetradecyloxy)hexyl)amino)propyl)azanediyl)dihexanoate], in data set [1], the “Positive rate, %” value is listed as 92.64%. Further, the viability at 24 h in data set [2] was 86.6%. In data set [3], the PDI is listed as 0.10 and the Particle size is given as 71.95. For the same molecule, the “Encapsulation rate, %” value in data set [4] amounted to 98.32%.
`CCCCCCCCCCCCCCOC(=O)CCCCCCN(CCO)CCCN(CCCCCCC(=O)OCCCCCCCCCCCCCC)CCCCCCC(=O)OCCCCCCCCCCCCCC` [Example 56, Ditetradecyl 7,7'-((3-((2-hydroxyethyl)(7-oxo-7-(tetradecyloxy)heptyl)amino)propyl)azanediyl)diheptanoate]: in data set [1], the “Positive rate, %” value is on record as 93.64%. In data set [2], the viability at 24 h was 80.5%. In data set [3], the PDI worked out at 0.14 and the Particle size was 64.31. Moreover, in data set [4], the “Encapsulation rate, %” value is given as 99.68%.
As for `CCCCCCCCCCCCCCOC(=O)CCCCCCN(CCCO)CCCN(CCCCCCC(=O)OCCCCCCCCCCCCCC)CCCCCCC(=O)OCCCCCCCCCCCCCC` [Example 57, Ditetradecyl 7,7'-((3-((3-hydroxypropyl)(7-oxo-7-(tetradecyloxy)heptyl)amino)propyl)azanediyl)diheptanoate], the “Positive rate, %” value in data set [1] turned out to be 97.36%. In data set [2], the viability at 24 h came out at 76.9%. In data set [3], the PDI came to 0.17 and the Particle size is given as 68.32. The “Encapsulation rate, %” value in data set [4] is listed as 99.36%.
Taken in the same sequence, the figures for `CCCCCCCCCCCCCCOC(=O)CCCCCCN(CCCCO)CCCN(CCCCCCC(=O)OCCCCCCCCCCCCCC)CCCCCCC(=O)OCCCCCCCCCCCCCC` [Example 58, Ditetradecyl 7,7'-((3-((4-hydroxybutyl)(7-oxo-7-(tetradecyloxy)heptyl)amino)propyl)azanediyl)diheptanoate] were 87.44%, 63.2%, 0.16, 79.13 and 99.17%.
Consider `CCCCCCCCCCCCCCOC(=O)CCCCCCCN(CCO)CCCN(CCCCCCCC(=O)OCCCCCCCCCCCCCC)CCCCCCCC(=O)OCCCCCCCCCCCCCC` [Example 59, Ditetradecyl 8,8'-((3-((2-hydroxyethyl)(8-oxo-8-(tetradecyloxy)octyl)amino)propyl)azanediyl)dioctanoate], for which, in data set [1], the “Positive rate, %” value stood at 96.89%. In data set [2], the viability at 24 h is 55.6%. This molecule gave a PDI in data set [3] of 0.08. In addition, in data set [4], the “Encapsulation rate, %” value is 91.15%.
Turning to `CCCCCCCCCCCCCCOC(=O)CCCCCCCN(CCCO)CCCN(CCCCCCCC(=O)OCCCCCCCCCCCCCC)CCCCCCCC(=O)OCCCCCCCCCCCCCC` [Example 60, Ditetradecyl 8,8'-((3-((3-hydroxypropyl)(8-oxo-8-(tetradecyloxy)octyl)amino)propyl)azanediyl)dioctanoate], in data set [1], the “Positive rate, %” value amounted to 97.14%. Also, in data set [2], the viability at 24 h is 72.3%. In data set [3], this molecule gave a PDI of 0.10 and a Particle size of 65.40. Moreover, in data set [4], the “Encapsulation rate, %” value was found to be 99.46%.
In the case of `CCCCCCCCCCCCCCOC(=O)CCCCCCCN(CCCCO)CCCN(CCCCCCCC(=O)OCCCCCCCCCCCCCC)CCCCCCCC(=O)OCCCCCCCCCCCCCC` [Example 61, Ditetradecyl 8,8'-((3-((4-hydroxybutyl)(8-oxo-8-(tetradecyloxy)octyl)amino)propyl)azanediyl)dioctanoate], the “Positive rate, %” value in data set [1] was 95.85%. The viability at 24 h in data set [2] is 71.2%. In data set [3], the PDI is 0.13 and the Particle size is on record as 82.47. Further, the “Encapsulation rate, %” value in data set [4] is given as 97.38%.
Consider `CCCCCCCCCCCCCOC(=O)CCCN(CCO)CCCN(CCCC(=O)OCCCCCCCCCCCCC)CCCC(=O)OCCCCCCCCCCCCC` [Example 62, Ditridecyl 4,4'-((3-((2-hydroxyethyl)(4-oxo-4-(tridecyloxy)butyl)amino)propyl)azanediyl)dibutanoate], for which, in data set [1], the “Positive rate, %” value was found to be 96.24%. Besides, in data set [2], the viability at 24 h stood at 59%. In data set [3], this molecule showed a PDI of 0.16 and a Particle size of 99.80. Further, the “Encapsulation rate, %” value in data set [4] is on record as 99.32%.
Regarding `CCCCCCCCCCCCCOC(=O)CCCN(CCCO)CCCN(CCCC(=O)OCCCCCCCCCCCCC)CCCC(=O)OCCCCCCCCCCCCC` [Example 63, Ditridecyl 4,4'-((3-((3-hydroxypropyl)(4-oxo-4-(tridecyloxy)butyl)amino)propyl)azanediyl)dibutanoate], the “Positive rate, %” value in data set [1] was 92.85%. For the same molecule, the viability at 24 h in data set [2] amounted to 63.4%. For the same molecule, in data set [3], the PDI is recorded as 0.15 and the Particle size is 84.74. In addition, the “Encapsulation rate, %” value in data set [4] stood at 97.68%.
For `CCCCCCCCCCCOC(=O)CCCN(CCCO)CCCN(CCCC(=O)OCCCCCCCCCCC)CCCC(=O)OCCCCCCCCCCC` [Example 64, Diundecyl 4,4'-((3-((3-hydroxypropyl)(4-oxo-4-(undecyloxy)butyl)amino)propyl)azanediyl)dibutanoate], the “Positive rate, %” value in data set [1] is 99.18%. For the same molecule, the viability at 24 h in data set [2] was determined as 64.6%. Besides, in data set [3], the PDI was 0.19 and the Particle size is 90.58. In data set [4], the “Encapsulation rate, %” value is 98.93%.
The corresponding values for `CCCCCCCCCCCCCOC(=O)CCCN(CCCCO)CCCN(CCCC(=O)OCCCCCCCCCCCCC)CCCC(=O)OCCCCCCCCCCCCC` [Example 65, Ditridecyl 4,4'-((3-((4-hydroxybutyl)(4-oxo-4-(tridecyloxy)butyl)amino)propyl)azanediyl)dibutanoate] are 96.80%, 60.3%, 0.20, 90.10 and 96.31%.
`CCCCCCCCCCCOC(=O)CCCN(CCCCO)CCCN(CCCC(=O)OCCCCCCCCCCC)CCCC(=O)OCCCCCCCCCCC` [Example 66, Diundecyl 4,4'-((3-((4-hydroxybutyl)(4-oxo-4-(undecyloxy)butyl)amino)propyl)azanediyl)dibutanoate]: the “Positive rate, %” value in data set [1] is 98.63%. Further, in data set [2], the viability at 24 h is 76.7%. Moreover, the PDI in data set [3] stood at 0.14. The “Encapsulation rate, %” value in data set [4] is 94.12%.

What is called viability is the share of living cells, or the viability signal relative to a control.
